Measurements taken from patent publication US9266827B2, “Bicyclic sulfone compounds for inhibition of RORgamma activity and the treatment of disease” (Merck Sharp & Dohme Corp., priority 2012, dated 2016).
pEC50: −log10 of the molar value.

What follows are compounds tested against T1, RORγ-LBD (Homo sapiens, UniProt P51449) (assay: RORγ-Ligand Binding Domain (LBD) TR-FRET Assay). Settings: recombinant HIS-tagged RORγ-LBD lysate, biotinylated SRC1-2 LXXLL peptide.
T1 construct: made in house; host or cells: SF9 insect cells, baculovirus; crude lysate used
T1 sequence (P51449 269-508 limits assumed): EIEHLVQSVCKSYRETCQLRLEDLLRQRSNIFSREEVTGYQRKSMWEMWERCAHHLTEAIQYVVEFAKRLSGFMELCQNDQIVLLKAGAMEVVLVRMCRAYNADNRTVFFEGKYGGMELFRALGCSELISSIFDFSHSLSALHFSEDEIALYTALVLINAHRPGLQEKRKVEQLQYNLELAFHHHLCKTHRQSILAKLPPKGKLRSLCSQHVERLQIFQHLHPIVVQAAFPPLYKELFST
Assay type: biochemical
Protocol: Recombinant, HIS-tagged RORγ-LBD was expressed in SF9 cells using a baculovirus expression system. Cells were lysed and the lysate was used as a source for RORγ-LBD for the assay. A 1:80 dilution of RORγ-LBD lysate in assay buffer (25 mM HEPES pH 7.0, 100 mM NaCl, 0.01% Tween, 0.1% BSA) was prepared and 5 μL was added to each well (RORγ-LBD final concentration ˜3 nM). Control wells received lysate from SF9 cells not expressing RORγ-LBD.
Compounds to be tested were diluted to 100× final test concentration in DMSO and further diluted to 4× final test concentration using assay buffer to provide the test compound mixture. An aliquot (5 μL) of the test compound mixture was added to each well.
A 4× stock of biotinylated-LXXLL peptide from SRC1-2 (Biotin-[…]) was prepared in assay buffer and a 5 μL aliquot added to each well (450 nM final concentration). A 4× solution of europium tagged anti-HIS antibody (2 nM final concentration) and APC conjugated streptavidin (60 nM final concentration) were prepared and a 5 μL aliquot added to each well.
The final assay mixture was incubated for 4 hours to overnight, and the fluorescence signal was measured on an Envision plate reader: (Excitation filter=340 nm; APC emission=665 nm; Europium emission=615 nm; dichroic mirror=D400/D630; delay time=100 μs, integration time=200 μs).
EC50 values for test compounds were calculated from the quotient of the fluorescence signal at 665 nm divided by the fluorescence signal at 615 nm using GraphPad Prism software

pEC50, > 6.82:
O=C(Nc1ccc2c(c1)C(S(=O)(=O)c1ccc(C(F)(F)F)cc1)CCC2)c1c(F)cccc1Cl (stereo not shown) [Compound 1, 2-Chloro-6-fluoro-N-[8-(4-trifluoromethylbenzenesulfonyl)-5,6,7,8-tetrahydronaphthalen-2-yl]benzamide]
O=C(Nc1ccc2c(c1)C(S(=O)(=O)c1ccc(C(F)(F)F)cc1)CCC2)c1c(Cl)cccc1C(F)(F)F (stereo not shown) [IV-1]
O=C(Nc1ccc2c(c1)C(S(=O)(=O)c1ccc(C(F)(F)F)cc1)CCC2)c1c(F)cccc1C(F)(F)F (stereo not shown) [IV-2]
O=C(Nc1ccc2c(c1)C(S(=O)(=O)c1ccc(C(F)(F)F)cc1)CCC2)c1c(F)cccc1F (stereo not shown) [IV-4]
